Results on one compound are retold here after US10029984B2, “Mono- or di-substituted indole derivatives as dengue viral replication inhibitors” (Janssen Pharmaceuticals, Inc., priority 2015, dated 2018).

The test system of one data set is DENV-1 strain TC974#666. In words: Tetravalent RT-qPCR assay Protocol A, serotype 1. The data set is classed as cell-based. Conditions: Dengue virus, DENV1, 72 h; RT-qPCR serotype 1 TC974#666, Vero cells, day 3. On the procedure: (§1) The antiviral activity of the compounds of the invention was tested against DENV-1 strain TC974#666 (NCPV; Table 6), DENV-2 strain 16681 (Table 7), DENV-3 strain H87 (NCPV; Table 8) and DENV-4 strains H241 (NCPV; Table 9) in a RT-qPCR assay. Therefore, Vero cells were infected with either DENV-1, or -2, or -3, or -4 in the presence or absence of test compounds. At day 3 post-infection, the cells were lysed and cell lysates were used to prepare cDNA of both a viral target (the 3′UTR of DENV; table 2) and a cellular reference gene (β-actin, table 2). Subsequently, a duplex real time PCR was performed on a Lightcycler480 instrument. The generated Cp value is inversely proportional to the amount of RNA expression of these targets. Inhibition of DENV replication by a test compound result in a shift of Cp's for the 3′UTR gene. On the other hand, if a test compound is toxic to the cells, a similar effect on β-actin expression will be observed. The comparative ΔΔCp method is used to calculate EC50, which is based on the relative gene expression of the target gene (3′UTR) normalized with the cellular housekeeping gene (β-actin).
(§2) The culture medium consisted of minimal essential medium supplemented with 2% of heat-inactivated fetal calf serum, 0.04% gentamycin (50 mg/mL) and 2 mM of L-glutamine. Vero cells, obtained from ECACC, were suspended in culture medium and 75 μL/well was added in 96-well plates (10000 cells/well), which already contain the antiviral compounds. Typically, these plates contain a 4-fold serial dilution of 9 dilution steps of the test compound at 200 times the final concentration in 100% DMSO (500 nL; final concentration range: 25 μM-0.00038 μM). In addition, each plate contains wells which are assigned as virus controls (containing cells and virus in the absence of compound) and cell controls (containing cells in the absence of virus and compound). Once the cells were added in the plates, the plates were incubated in a fully humidified incubator (37° C., 5% CO2) until the next day. Then, DENV-1 strain TC974#666 at an MOI of 0.6, DENV-2 strain 16681 at an MOI of 0.01, DENV-3 strain H87 at an MOI of 1.0 and DENV-4 strains H241 at an MOI of 0.2 and SG/06K2270DK1/2005 at an MOI of 0.16, were added. Therefore, 25 μL of virus suspension was added to all the wells containing test compound and to the wells assigned as virus control. In parallel, 25 μL of culture medium was added to the cell controls. Next, the plates were incubated for 3 days in a fully humidified incubator (37° C., 5% CO2). After 3 days, the supernatant was removed from the wells and the cells were washed twice with ice-cold PBS (˜100 μL). The cell pellets within the 96-well plates were stored at −80° C. for at least 1 day. Next, RNA was extracted using the Cells-to-CT™ lysis kit, according to the manufacture's guideline (Applied Biosystems). The cell lysates can be stored at −80° C. or immediately used in the reverse transcription step.
(§3) In preparation of the reverse transcription step, mix A (table 3A) was prepared and 7.57 μL/well was dispensed in a 96-well plate. After addition of 5 μL of the cell lysates, a five minute denaturation step at 75° C. was performed (table 3B). Afterwards, 7.43 μL of mix B was added (table 3C) and the reverse transcription step was initiated (table 3D) to generate cDNA.
(§4) Finally, a RT-qPCR mix was prepared, mix C (table 4A), dispensed in 96-well LightCycler qPCR plates to which 3 μL of cDNA was added and the qPCR was performed according to the conditions in table 4B on a LightCycler 480. Using the LightCycler software and an in-house LIMS system, dose response curves for each compound were calculated and the half maximal effective concentration (EC50) and the half maximal cytotoxic concentration (CC50) were determined.
A general note: Real-time PCR tracks product formation cycle by cycle.

Another data set deals with DENV-3 strain H87. Nature of the data set: Tetravalent RT-qPCR assay Protocol A, serotype 3. The data set is classed as cell-based. Conditions: Dengue virus, DENV3, 72 h; RT-qPCR serotype 3 H87, Vero cells, day 3. How it is done:
as §1, §2, §3, §4

The next data set concerns DENV-2 strain 16681. Nature of the data set: Tetravalent RT-qPCR assay Protocol A, serotype 2. Conditions: Dengue virus, DENV2, 72 h; RT-qPCR serotype 2 16681, Vero cells, day 3. The data set is classed as cell-based.
A further data set deals with DENV-4 strains H241. In words: Tetravalent RT-qPCR assay Protocol A, serotype 4. The data set is classed as cell-based. Conditions: Dengue virus, DENV4, 72 h; RT-qPCR serotype 4 H241, Vero cells, day 3.
Data set [1] is described as follows: Chiral stability at pH 7.4 (enantiomeric excess by Chiral SFC after incubation). The data set is classed as physicochemical. Conditions: buffered solution pH 7.4, 5 μM. On the procedure: The chiral stability of Enantiomer 10B (R=OMe) was evaluated by determination of the enantiomeric excess (ee %) after incubation for 24 h and 48 h in a buffered solution at pH 7.4 at 40° C. and 60° C. To assess the influence of the methoxy-substituent of Enantiomer 10B (R=OMe) on the stability against racemization, the chiral stability of Enantiomer 10′B (R=H) was tested under the same conditions. To this end, 5 μM buffered (pH=7.4) solutions of 10B and 10′B were prepared by mixing 25 μL of a 100 μM solution of 10B and 10′B in DMSO with 475 μL aqueous buffer pH 7.4. Samples were taken 24 h and 48 h after incubation at 40° C. and 60° C. The analytical samples were analyzed by Chiral SFC (MS detection) and the chiral purity was expressed as the enantiomeric excess (ee %=% enantiomer B−% enantiomer A).

Broadly, the EC50 is the concentration giving half of the maximal effect. Turning to `COc1cc(NC(C(=O)c2c[nH]c3cc(OC)c(C)cc23)c2ccc(F)cc2OC)cc(S(C)(=O)=O)c1` (single isomer, unassigned) [Enantiomer 10B, 2-(4-fluoro-2-methoxyphenyl)-2-((3-methoxy-5-(methylsulfonyl)phenyl)amino)-1-(6-methoxy-5-methyl-1H-indol-3-yl)ethanone], the 50% effective concentration (EC50) with DENV-1 strain TC974#666 was 0.00446 µM; with DENV-3 strain H87, 0.0554 µM; in the data set with DENV-2 strain 16681, 0.000605 µM; with DENV-4 strains H241 it was 0.109 µM. For the same compound, the ee % came to 100% in data set [1] (40° C., 24 h); 100% in data set [1] (40° C., 48 h); 97% in data set [1] (60° C., 24 h); 97% in data set [1] (60° C., 48 h).
